Measured values reported in patent US12252417B2, “Passive, gravity-driven system for treatment of an effluent in a diagnostic system” (Ventana Medical Systems, Inc., priority 2016, dated 2025).
“Also recorded” adds a separate entry of the source. One block for each compound: values may come before it.

Assays:
[1] = Thermal radical initiator screening, DAB decomposition by sonication in BenchMark Reaction Buffer; conditions: for Effect on DAB decomposition with sonication: BenchMark Reaction Buffer; for Sonication time after which no DAB monomer was detectable: DAB 68.1 mg/L in BenchMark Reaction Buffer, initiator approx. 0.0882 mmol per 25 mL
Description: Sonication can form acoustic cavitation in liquids causing the formation, growth and implosive collapse of bubbles and heat generation. Sonication was used to thermally activate thermal radical initiators to induce DAB decomposition. Thermal radical initiator screening experiments were performed using a MisonixSonicator 3000 Ultrasonic Liquid Processor. The sonicator voltage converter and horn were connected to a microtip probe. […] A DAB sample in RTD BenchMark Reaction Buffer (68.1 mg/L) was sonicated with or without the presence of a thermal radical initiator. […] The sonication mixed the sample efficiently.

[2] = Radical initiator screening in DAB UV oxidation (Aquatop 10 W in-line UV sterilizer, BenchMark Reaction Buffer); conditions: for Impact on DAB UV oxidation: 30 min UV exposure, relative to no initiator; for % Loss DAB (30 min UV): DAB 68.1 mg/L in BenchMark Reaction Buffer, initiator approx. 0.882 mmol per 250 mL, 10 W
[3] = DAB UV oxidation in in-line UV sterilizers, BenchMark IHC waste matrix; conditions: for UV irradiation time for DAB monomer to decrease to LOD: 55 W
Description: DAB degradation rates were determined using HPLC analysis to monitor DAB concentration change in Milli-Q® deionized (“DDI”) water, BenchMark Reaction Buffer and BenchMark IHC waste matrices. HPLC analyses were performed on a Waters Acquity Ultra Performance Liquid Chromatography (“UPLC”) instrument with photodiode array (“PDA”) detection. Standard reverse phase chromatography was used for UPLC analyses in BenchMark Reaction Buffer and DDI water matrices. Reverse phase HPLC chromatography with ion-pairing was used for DAB analysis in BenchMark waste. DAB samples were analyzed without filtration or dilution.
A SIELC PrimeSep S column 2.1×100 mm (5μ) and 2.1×10 mm guard column HPLC column was used. The eluents were 40% acetonitrile in 50 mM ammonium formate (pH=4.0). The flow rate was 0.2 mL/min, the gradient profile was an isocratic elution, the column temperature was 30° C., and the injection volume was 8 μL. The PDA detection wavelengths were 210 to 499 nm (2.4 nm resolution and 20 pts/sec). The expected retention time (in BenchMark waste) for DAB and 2-HOPyr was 2.56 min and 1.64 min, respectively.
Multiple UV irradiation flow-through systems were used to examine UV promoted DAB oxidation. A commercial in-line UV water sterilizers with preset lamp wattage and UV irradiation chamber geometry, namely, an Aquatop 10 W In-line UV sterilizer (Aquatop p/n: IL10-UV), was used to treat water up to a 211 gallon/hour flow rate. The sterilizer featured an external variable-speed micropump gear pump that controlled fluid flow rates with the assistance of an independent power supply. Samples were irradiated with active mixing, dwell mixing, or no mixing. For in-line UV sterilizers that were used without mixing pumps, inversion mixing was performed to create a uniform sample prior to sampling. Multiple UV sterilizer UV lamp wattages were examined (10, 18 and 55 W). Multiple UV irradiation sources may be installed adjacently with serial connection to each other to increase effluent exposure time.
DAB UV oxidation experiments were performed in the Aquatop 10 W in-line UV sterilizer as above with variable sample matrices (i.e. DDI water versus BenchMark IHC Waste). […] A fresh BenchMark Ultra OptiView DAB with TSA Amp IHC Waste was used for this experiment where the aqueous layer was separated from a majority of the LCS by gravity. The BenchMark IHC Waste still contained some LCS, which was finely dispersed with the BenchMark IHC waste surfactants. Both samples were irradiated by UV light for 75 minutes. The Aquatop in-line sterilizer was inverted (2×) using an air pocket to mix the matrix uniformly prior to sampling. The reaction mixture was analyzed by UPLC every 10 minutes.
DAB UV oxidation experiments were performed within in-line UV water sterilizers with different UV lamp wattages. […] The Aquatop in-line sterilizer was inverted (2×) using an air pocket to mix the matrix uniformly prior to sampling. The reaction mixture was analyzed by UPLC every 10 minutes.

[4] = DAB UV oxidation in 36 W top-down UV irradiation test bed, Reaction Buffer matrix; type: physicochemical
Description: As shown in FIGS. 9A-9C, a test bed was prepared to investigate top-down UV irradiation systems without direct liquid contact to the UV irradiation source (also referred to as “UV lamp light”). This test bed used two 18 W lamps to irradiate the fluid matrix from above while the liquid meandered through a predetermined path in the metal tray below to control sample exposure time. The UV light sources may be installed adjacently in parallel connection to each other (e.g. UV light array, etc.) to increase the power of the array. Alternatively, the UV light sources may be installed serially to increase exposure time. A second bottom irradiation plastic container was prepared without the pathway. UV light is absorbed as it goes through a liquid medium causing the aqueous layer furthest from the lamp to receive less UV irradiation. This test bed was used to examine liquid layer thickness and waste matrix impurities (i.e. LCS, DAB oxidation products, etc.) impact on DAB UV decomposition rates.
The 36 W top-down UV irradiation test bed without direct sample liquid contact to the UV light source was used to investigate matrix layer thickness tolerance during DAB UV irradiation (FIGS. 9A-9C). UV light is absorbed as it goes through a liquid medium causing the aqueous layer furthest from the lamp to receive less UV irradiation. A DAB sample in Reaction Buffer matrix was prepared at the expected waste concentration with approximately 20% (v/v) LCS. OptiView DAB IHC detection kit DAB chromogen, detection peroxide and inhibitor peroxide reagents were added to BenchMark Reaction Buffer matrix (143 μL each reagent per 250 mL). The 36 W top-down UV irradiation test bed bottom was filled with a specific matrix layer thickness (i.e. 10-, 20- or 30-mm thickness). The DAB sample was treated with UV irradiation without mixing and a sample was removed every 2 minutes to 10 minutes and then every 5 minutes thereafter through 30 minutes. The matrix sample was analyzed by RP UPLC.
The 36 W top-down UV irradiation test bed without direct sample liquid contact to the UV light source was used to investigate how LCS could be tolerated during DAB UV irradiation in a top-down configuration. A DAB sample in Reaction Buffer matrix was prepared at the expected waste concentration with or without approximately 20% (v/v) LCS. OptiView DAB IHC detection kit DAB chromogen, detection peroxide and inhibitor peroxide reagents were added to Reaction Buffer matrix (143 μL each reagent per 250 mL). These Reaction Buffer/LCS mixed matrix was tested with LCS not mixed, mixed by inversion 20× to form an initial bubble LCS emulsion, and vigorously mixed to form an initial opaque LCS emulsion.
The 36 W top-down UV irradiation test bed bottom was filled with a 10 mm volume layer thickness. The DAB sample was treated with UV irradiation without mixing and a sample was removed every 2 minutes to 10 minutes and then every 5 minutes thereafter through 30 minutes. The matrix sample was analyzed by RP UPLC. […] These DAB intermediates remained in solution longer when the opaque white LCS layer was present.

[5] = DAB UV oxidation in in-line UV sterilizer, DDI water matrix; type: physicochemical
Description: A DAB sample in DDI water (68.1 mg/L) was treated with 3% hydrogen peroxide as a radical initiator (1 mL per approx. 225 mL DAB sample). […] Mixing aided the diffusion of the homolytic hydrogen peroxide UV oxidation product (HO·), which oxidized DAB.
The sample was irradiated by UV light (60 to 90 min).

SMILES: CC(C)(N=NC(C)(C)C(=N)N)C(=N)N [2,2′-azobis(2-methylpropionatnidine)]
Effect on DAB decomposition with sonication [1]: promoted DAB oxidation with sonication

SMILES: CC(C#N)(CCC(=O)O)N=NC(C)(C#N)CCC(=O)O (stereo not shown) [4,4′-azobis(4-cyanovaleric acid)]
Effect on DAB decomposition with sonication [1]: promoted DAB oxidation with sonication

SMILES: Nc1ccc(C(=O)c2ccccc2)cc1 [ABP, 4-amino-benzophenone]
Impact on DAB UV oxidation [2]: appeared to inhibit DAB oxidation
% Loss DAB (30 min UV) [2]: 16%

SMILES: CC(C)(C#N)N=NC(C)(C)C#N [AIBN, azobisisobutyronitrile]
Impact on DAB UV oxidation [2]: minimal impact on DAB UV oxidation
% Loss DAB (30 min UV) [2]: 64%
Sonication time after which no DAB monomer was detectable [1]: 25 min

SMILES: N.N.O=S(=O)(O)OOS(=O)(=O)O [APS, ammonium persulfate]
% Loss DAB (30 min UV) [2]: 100%
DAB loss ([2]; after 2 minutes exposure to the initiator): > 95%
Sonication time after which no DAB monomer was detectable [1]: ≤ 5 min

SMILES: CCN(CC)c1ccc(C(=O)c2ccc(N(CC)CC)cc2)cc1 [BDABP, 4,4′-bisdiethylaminobenzophenone]
Impact on DAB UV oxidation [2]: decreased the amount of DAB monomer found in solution
% Loss DAB (30 min UV) [2]: 68%

SMILES: O=C(OOC(=O)c1ccccc1)c1ccccc1 [Benzoyl Peroxide, benzoyl peroxide]
Impact on DAB UV oxidation [2]: decreased the amount of DAB monomer found in solution
% Loss DAB (30 min UV) [2]: 72%
Sonication time after which no DAB monomer was detectable [1]: 5 min

SMILES: Nc1ccc(-c2ccc(N)c(N)c2)cc1N [DAB, 3,3′-diaminobenzidine]
DAB monomer still detectable ([2]; BenchMark Reaction Buffer, 60 minutes UV irradiation, absence of hydrogen peroxide): Approximately 38%
DAB monomer detected ([2]; BenchMark Reaction Buffer, 60 minutes of UV irradiation, presence of hydrogen peroxide): Less than 5%
Time to DAB monomer at or below HPLC LOD ([3]; BenchMark IHC waste, 10 W, 3 mL 3% peroxide per 250 mL): ≤ 30 min
UV irradiation time for DAB monomer to decrease below LOD ([3]; BenchMark IHC waste, 18 W, 3% hydrogen peroxide 20 mL per approx. 1.5 L): Approximately 90 minutes
UV irradiation time for DAB monomer to decrease to LOD ([3]; BenchMark IHC waste, 3% hydrogen peroxide 20 mL per approx. 1.5 L): 30 min
DAB monomer still detectable ([3]; BenchMark waste, 10 W, 60 minutes UV irradiation, without hydrogen peroxide): about 21%
UV irradiation time for DAB monomer to decrease to LOD ([3]; both BenchMark IHC waste matrices (with and without LCS emulsion), hydrogen peroxide): 30 to 40 min
UV irradiation time to no DAB intermediates (dimers, trimers) ([4]; 10 mm matrix layer thickness): 15 to 20 min
UV irradiation time to no DAB intermediates (dimers, trimers) ([4]; 20 mm matrix layer thickness): 25 min
UV irradiation time to no DAB intermediates (dimers, trimers) ([4]; 30 mm matrix layer thickness, intermediates still shown): > 30 min
UV irradiation time to no DAB intermediates ([4]; Reaction Buffer only matrix, 10 mm layer): 4 to 6 min
UV radiation time after which no DAB monomer was detected ([4]; all aqueous layer thicknesses (10, 20, 30 mm), approx. 20% (v/v) LCS, no mixing): 2 to 4 min
UV radiation time after which no DAB monomer was detected ([4]; all sample matrices (with or without LCS, emulsions), 10 mm layer): 2 to 4 min
UV irradiation time to no DAB intermediates ([4]; clear LCS layered matrix, 10 mm layer): 10 to 15 min
UV irradiation time to no DAB intermediates ([4]; other LCS emulsion samples, 10 mm layer): 20 to 25 min
DAB monomer detected ([5]; 10 W in-line UV sterilizer, 15 minutes of static UV irradiation without any mixing): Approximately 34%
DAB monomer still detectable ([5]; 10 W, 60 minutes UV irradiation, absence of hydrogen peroxide): Approximately 10%
UV irradiation time after which no DAB monomer was detected ([5]; 10 W, presence of hydrogen peroxide (1 mL 3% per approx. 225 mL)): 50 min
UV irradiation time after which DAB monomer was not detectable ([5]; 55 W UV in-line sterilizer, RP UPLC, data not shown): 20 to 30 min
DAB monomer by UPLC after storage overnight at 10° C. ([5]; samples that received only 2 minutes UV irradiation): not detected; also recorded: No DAB monomer was detected

Solubility in water: completely soluble in water
SMILES: OO [Hydrogen Peroxide, hydrogen peroxide]
% Loss DAB (30 min UV) [2]: 96%
Effect on DAB decomposition with sonication [1]: failed to show any substantial DAB decomposition

SMILES: CC(=O)OO [Peracetic Acid, peracetic acid]
Impact on DAB UV oxidation [2]: decreased the amount of DAB monomer found in solution
% Loss DAB (30 min UV) [2]: 73%
Solubility in water: completely soluble in water

SMILES: CC1(C)CCCC(C)(C)N1[O] [TEMPO]
Impact on DAB UV oxidation [2]: appeared to inhibit DAB oxidation
% Loss DAB (30 min UV) [2]: 45%
